In patent publication US20220087247A1, “MOUSE REPELLENTS, DEVICES, AND METHODS OF USING SUCH” (priority 2020, published 2022):

Experiments:
[1] = test system: mosquitoes, beetles, and termites; settings: known from prior knowledge; cited from earlier work
[2] = test system: female house mice, Mus musculus (strain: CD-1); assay: Two-choice T-tube olfactometer bioassay: deterrence from approaching and feeding on a food bait; format: in vivo; settings: Experiments 1 to 12; single test stimulus 100 μl or 100 mg on cotton ball next to food bait vs unscented chamber
Source text: Female house mice, Mus musculus (strain: CD-1®), were obtained from Charles River Laboratories Ltd (Saint-Constant, QC J5A 2E7, Canada) and cared for by Animal Care Services of Simon Fraser University (“SFU”). On arrival, mice were assigned to four groups of five female mice each. Each group was accommodated in cages (50 cm×40 cm×20 cm) lined with commercial corn cob bedding (Anderson's Bed o'cobs, The Andersons Inc. Maumee, Ohio 43537, USA), provided with Nalgene toys, running wheels (Jamieson's Pet Food Distributors, Ltd, Delta, BC V4G 1C9, Canada), and provisioned with commercial rodent food (LabDiet® Certified Rodent Diet, LabDiet®, St Louis, Mo. 63144, USA) as well as water ad libitum. Cages were maintained at a temperature of 21° C. and a relative humidity of 50%. A reverse photoperiod (12 hours light; 12 hours dark) was maintained to facilitate behavioral bioassays during normal working hours. […]
FIG. 3 depicts data obtained by additional testing of those plant essential oils found most promising in pre-screening experiments (Experiments 2, 5, 8, 9, and 11), running a total of 8 replicates for each of experiments 2, 5, 8, 9 and 11. First-choice, first-fed, and time-spent data were analyzed using g-tests and Student's t-tests, respectively, for these experiments. […]

Structure (SMILES) | repellency to insects [1] | first fed (scented chamber fed in first by mice) [2]
C=CCc1ccc(O)c(OC)c1 [Eugenol] | repellent | 
CC1CCC(C(C)C)C(O)C1 (centres unmarked) [menthol, Menthol] |  | never fed in first
